Structures can show the parent of a compound that is named as a salt. Bounds are passed on as bounds.

This passage reports IC50 results from patent US9994594B2, “Inhibitors of arginase and their therapeutic applications” (MARS, INCORPORATED, priority 2010, dated 2018).

One experiment concerns the target T1, arginase II (ARG II) (Homo sapiens, UniProt P78540).
T1 sequence (P78540 23-354): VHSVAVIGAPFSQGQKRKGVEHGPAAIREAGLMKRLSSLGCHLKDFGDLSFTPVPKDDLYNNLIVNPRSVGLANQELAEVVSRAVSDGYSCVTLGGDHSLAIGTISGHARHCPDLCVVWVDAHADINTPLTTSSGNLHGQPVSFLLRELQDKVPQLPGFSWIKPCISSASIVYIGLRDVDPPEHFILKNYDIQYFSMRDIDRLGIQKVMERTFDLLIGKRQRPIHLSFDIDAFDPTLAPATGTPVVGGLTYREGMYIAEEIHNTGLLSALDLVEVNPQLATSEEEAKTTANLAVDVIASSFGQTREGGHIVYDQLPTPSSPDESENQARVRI
The experiment can be described thus: Inhibition of arginase II, spectrophotometric urea assay at 530 nm. Type of experiment: biochemical. As to conditions: Formula II compounds, Table 2-A; read-out: Potency (ARG). The gist of the method:
(§1)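 IC50 was derived by regression of OD530 normalized to uninhibited-enzyme controls against log concentration. Urea from 60-min, 37 °C turnover of L-arginine with manganese sulfate was detected after acid o-phthaldialdehyde/primaquine quench and 10 min colour development. Arginase I and II came from 100 ng/ml stocks in pH 7.4 phosphate with ovalbumin.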

The next experiment deals with T2, human arginase I (ARG I) (Homo sapiens, UniProt P05089).
T2 sequence (P05089 1-322): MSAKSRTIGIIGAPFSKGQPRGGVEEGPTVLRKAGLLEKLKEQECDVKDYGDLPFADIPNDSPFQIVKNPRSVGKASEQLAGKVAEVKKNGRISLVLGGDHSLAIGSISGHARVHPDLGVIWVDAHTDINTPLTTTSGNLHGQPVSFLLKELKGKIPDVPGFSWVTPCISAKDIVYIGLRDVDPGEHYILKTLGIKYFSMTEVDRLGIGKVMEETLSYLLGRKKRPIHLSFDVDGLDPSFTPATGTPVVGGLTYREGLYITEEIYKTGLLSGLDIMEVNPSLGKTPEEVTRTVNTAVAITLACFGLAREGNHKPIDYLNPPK
The experiment can be described thus: Inhibition of arginase I, spectrophotometric urea assay at 530 nm. Type of experiment: biochemical. As to conditions: Formula II compounds, Table 2-A; read-out: Potency (ARG I). The method in brief:
as §1

For the compound `NC(CCCCB(O)O)(C(=O)O)[C@H]1CCCN(Cc2ccc(Cl)c(Cl)c2)C1` (stereo partly drawn) [Example 69-A, 2-amino-6-borono-2-((S)-1-(3,4-dichlorobenzyl)piperidin-3-yl)hexanoic acid dihydrochloride], the IC50 at arginase II (ARG II) lay in the range of 1000 to 2000 nM; at human arginase I (ARG I), 251 to 1000 nM.

As for `NC(CCCCB(O)O)(C(=O)O)C1CCCNCC1` (stereo not shown) [Example 72-A, 2-amino-2-(azepan-4-yl)-6-boronohexanoic acid dihydrochloride], the figures for the IC50 on arginase II (ARG II) and at human arginase I (ARG I) were 251 to 1000 nM and 0.1 to 250 nM, respectively.

With `NC(CCCCB(O)O)(C(=O)O)C1CCCN(Cc2ccc(Cl)c(Cl)c2)CC1` (stereo not shown) [Example 73-A, 2-amino-6-borono-2-(1-(3,4-dichlorobenzyl)azepan-4-yl)hexanoic acid dihydrochloride], the IC50 was in the range of 251 to 1000 nM on arginase II (ARG II) and 0.1 to 250 nM on human arginase I (ARG I).

As to `NC(CCCCB(O)O)(C(=O)O)[C@H]1C[C@@H](NCc2ccccc2)C1` (stereo partly drawn) [Example 74-A, cis-2-amino-2-(3-(benzylamino)cyclobutyl)-6-boronohexanoic acid dihydrochloride], the IC50 on arginase II (ARG II) and at human arginase I (ARG I) was 0.1 to 250 nM in each case.

Take `NC(CCCCB(O)O)(C(=O)O)[C@H]1C[C@H](NCc2ccccc2)C1` (stereo partly drawn) [Example 75-A, trans-2-amino-2-(3-(benzylamino)cyclobutyl)-6-boronohexanoic acid dihydrochloride]: the IC50 on arginase II (ARG II) lay within 251 to 1000 nM; at human arginase I (ARG I), 0.1 to 250 nM.

Regarding `NC(CCCCB(O)O)(C(=O)O)[C@H]1C[C@@H](NCc2ccc(OC(F)(F)F)cc2)C1` (stereo partly drawn) [Example 76-A, cis-2-amino-6-borono-2-(3-(4-(trifluoromethoxy)benzylamino)cyclobutyl)hexanoic acid dihydrochloride], the IC50 at arginase II (ARG II) and on human arginase I (ARG I) was 0.1 to 250 nM throughout.

As for `NC(CCCCB(O)O)(C(=O)O)[C@H]1C[C@@H](NCc2ccc(-c3ccccc3)cc2)C1` (stereo partly drawn) [Example 77-A, cis-2-amino-2-(3-(biphenyl-4-ylmethylamino)cyclobutyl)-6-boronohexanoic acid dihydrochloride], the IC50 at arginase II (ARG II) and at human arginase I (ARG I) was 0.1 to 250 nM in each case.

Turning to `NC(CCCCB(O)O)(C(=O)O)[C@H]1C[C@@H](NCc2cc3c(cc2Cl)OCO3)C1` (stereo partly drawn) [Example 78-A, cis-2-amino-6-borono-2-(3-((6-chlorobenzo[d][1,3]dioxol-5-yl)methylamino)cyclobutyl)hexanoic acid dihydrochloride], the IC50 at arginase II (ARG II) and on human arginase I (ARG I) was 0.1 to 250 nM throughout.

Take `NC(CCCCB(O)O)(C(=O)O)[C@H]1C[C@@H](NCc2cccc3cccnc23)C1` (stereo partly drawn) [Example 79-A, cis-2-amino-6-borono-2-(3-(quinolin-8-ylmethylamino)cyclobutyl)hexanoic acid dihydrochloride]: the IC50 on arginase II (ARG II) and on human arginase I (ARG I) was 0.1 to 250 nM throughout.

Turning to `NC(CCCCB(O)O)(C(=O)O)[C@H]1C[C@@H](NCc2cccc3ccccc23)C1` (stereo partly drawn) [Example 80-A, cis-2-amino-6-borono-2-(3-(naphthalen-1-ylmethylamino)cyclobutyl)hexanoic acid dihydrochloride], the IC50 on arginase II (ARG II) and on human arginase I (ARG I) was 0.1 to 250 nM in each case.

Consider `NC(CCCCB(O)O)(C(=O)O)[C@H]1C[C@@H](N)C1` (stereo partly drawn) [Example 81-A, cis-2-amino-2-(3-aminocyclobutyl)-6-boronohexanoic acid dihydrochloride], for which the IC50 at arginase II (ARG II) and at human arginase I (ARG I) was 0.1 to 250 nM throughout.

Take `NC(CCCCB(O)O)(C(=O)O)[C@H]1C[C@@H](NCc2ccc(Cl)cc2)C1` (stereo partly drawn) [Example 82-A, cis-2-amino-6-borono-2-(3-(4-chlorobenzylamino)cyclobutyl)hexanoic acid dihydrochloride]: the IC50 at arginase II (ARG II) and on human arginase I (ARG I) was 0.1 to 250 nM each time.

With `CC(C)CN[C@H]1C[C@@H](C(N)(CCCCB(O)O)C(=O)O)C1` (stereo partly drawn) [Example 83-A, cis-2-amino-6-borono-2-(3-(isobutylamino)cyclobutyl)hexanoic acid dihydrochloride], the IC50 on arginase II (ARG II) and on human arginase I (ARG I) was 0.1 to 250 nM each time.

For `NC(CCCCB(O)O)(C(=O)O)[C@H]1CC[C@@H](C(=O)c2ccc(Cl)cc2)CC1` (stereo partly drawn) [Example 84-A, cis-2-Amino-6-borono-2-[4-(4-Chlorobenzoyl)-cyclohexyl]hexanoic acid hydrochloride], the IC50 at arginase II (ARG II) and on human arginase I (ARG I) was over 5000 nM throughout.

In the case of `NC(CCCCB(O)O)(C(=O)O)C1CCN(c2ccc(Cl)cn2)CC1` (stereo not shown) [Example 85-A, 2-amino-6-borono-2-(1-(5-chloropyridin-2-yl)piperidin-4-yl)hexanoic acid hydrochloride], the IC50 on arginase II (ARG II) lay in the range of 251 to 1000 nM; at human arginase I (ARG I) it was 1000 to 2000 nM.

In the case of `NC(CCCCB(O)O)(C(=O)O)C1CCC(c2ccc(Cl)cc2)CC1` (stereo not shown) [Example 86-A, 2-amino-6-borono-2-(4-(4-chlorophenyl)cyclohexyl)hexanoic acid hydrochloride], the IC50 at arginase II (ARG II) and at human arginase I (ARG I) was over 5000 nM throughout.

With `NC(CCCCB(O)O)(C(=O)O)C1CCN(Cc2ccccc2)CC1` (stereo not shown) [Example 87-A, 2-amino-2-(1-benzylpiperidin-4-yl)-6-boronohexanoic acid dihydrochloride], the IC50 at arginase II (ARG II) and on human arginase I (ARG I) was 0.1 to 250 nM throughout.

`NC(CCCCB(O)O)(C(=O)O)C1CCNCC1` (stereo not shown) [Example 88-A, 2-amino-6-borono-2-(piperidin-4-yl)hexanoic acid dihydrochloride]: the IC50 at arginase II (ARG II) and on human arginase I (ARG I) was 251 to 1000 nM throughout.

Turning to `NC(CCCCB(O)O)(C(=O)O)C1CCN(Cc2ccc(Cl)cc2)CC1` (stereo not shown) [Example 89-A, 2-amino-6-borono-2-(1-(4-chlorobenzyl)piperidin-4-yl)hexanoic acid dihydrochloride], the IC50 on arginase II (ARG II) and on human arginase I (ARG I) was 0.1 to 250 nM each time.

Turning to `NC(CCCCB(O)O)(C(=O)O)C1CCN(Cc2ccc3c(c2)OCO3)CC1` (stereo not shown) [Example 90-A, 2-amino-2-(1-(benzo[d][1,3]dioxol-5-ylmethyl)piperidin-4-yl)-6-boronohexanoic acid dihydrochloride], the IC50 on arginase II (ARG II) and at human arginase I (ARG I) was 0.1 to 250 nM throughout.

On to `NC(CCCCB(O)O)(C(=O)O)C1CCN(Cc2cc3c(cc2Cl)OCO3)CC1` (stereo not shown) [Example 91-A, 2-amino-6-borono-2-(1-((6-chlorobenzo[d][1,3]dioxol-5-yl)methyl)piperidin-4-yl)hexanoic acid dihydrochloride], for which the IC50 was 251 to 1000 nM on arginase II (ARG II) and 0.1 to 250 nM at human arginase I (ARG I).

Regarding `CC(C)CCN1CCC(C(N)(CCCCB(O)O)C(=O)O)CC1` (stereo not shown) [Example 92-A, 2-amino-6-borono-2-(1-isopentylpiperidin-4-yl)hexanoic acid dihydrochloride], the IC50 at arginase II (ARG II) and at human arginase I (ARG I) was 0.1 to 250 nM each time.

`NC(CCCCB(O)O)(C(=O)O)C1CCN(Cc2ccc(C(F)(F)F)cc2)CC1` (stereo not shown) [Example 93-A, 2-amino-6-borono-2-(1-(4-(trifluoromethyl)benzyl)piperidin-4-yl)hexanoic acid]: the IC50 at arginase II (ARG II) and at human arginase I (ARG I) was 251 to 1000 nM each time.

`NC(CCCCB(O)O)(C(=O)O)C1CCN(Cc2ccc(F)cc2)CC1` (stereo not shown) [Example 94-A, 2-amino-6-borono-2-(1-(4-fluorobenzyl)piperidin-4-yl)hexanoic acid dihydrochloride]: the IC50 was 251 to 1000 nM at arginase II (ARG II) and 0.1 to 250 nM at human arginase I (ARG I).

`NC(CCCCB(O)O)(C(=O)O)C1CCN(Cc2ccc(Cl)c(Cl)c2)CC1` (stereo not shown) [Example 95-A, 2-amino-6-borono-2-(1-(3,4-dichlorobenzyl)piperidin-4-yl)hexanoic acid dihydrochloride]: the IC50 fell in the range of 251 to 1000 nM at arginase II (ARG II) and 0.1 to 250 nM on human arginase I (ARG I).

With `COc1cc(F)c(CN2CCC(C(N)(CCCCB(O)O)C(=O)O)CC2)cc1OC` (stereo not shown) [Example 96-A, 2-amino-6-borono-2-(1-(2-fluoro-4,5-dimethoxybenzyl)piperidin-4-yl)hexanoic acid dihydrochloride], the values for the IC50 on arginase II (ARG II) and on human arginase I (ARG I) were 251 to 1000 nM and 0.1 to 250 nM, respectively.

Regarding `NC(CCCCB(O)O)(C(=O)O)C1CCN(Cc2ccc(Cl)cc2Cl)CC1` (stereo not shown) [Example 97-A, 2-amino-6-borono-2-(1-(2,4-dichlorobenzyl)piperidin-4-yl)hexanoic acid dihydrochloride], the IC50 on arginase II (ARG II) and at human arginase I (ARG I) was 251 to 1000 nM each time.

`NC(CCCCB(O)O)(C(=O)O)C1CCN(Cc2cccc3ccccc23)CC1` (stereo not shown) [Example 98-A, 2-amino-6-borono-2-(1-(naphthalen-1-ylmethyl)piperidin-4-yl)hexanoic acid dihydrochloride]: the IC50 at arginase II (ARG II) and at human arginase I (ARG I) was 0.1 to 250 nM in each case.

As for `NC(CCCCB(O)O)(C(=O)O)C1CCN(Cc2ccc3ccccc3c2)CC1` (stereo not shown) [Example 99-A, 2-amino-6-borono-2-(1-(naphthalen-2-ylmethyl)piperidin-4-yl)hexanoic acid dihydrochloride], the IC50 at arginase II (ARG II) and at human arginase I (ARG I) was 0.1 to 250 nM throughout.
